The record followed here is patent US7906620B2, “Tumor associated antigen, peptides thereof, and use of same as anti-tumor vaccines” (Yeda Research and Development Co. Ltd., priority 2002, dated 2011).

One assay has as its system LNCaP. The assay is described as follows: Lysis of LNCaP tumor cells by human anti-peptide CTL. The assay is classed as cell-based. The conditions noted are these: LNCaP high and low HLA expressors as targets. The source says:
FIGS. 18A-18E are graphs showing that human anti-peptide CTL from a healthy donor kills LNCaP tumor cells. PBMC from a healthy donor (FIGS. 18A-18C) or a CaP patient (FIGS. 18D-18E) were stimulated with PAP-3 (FIGS. 18A, 18D), STEAP-3 (FIGS. 18B, 18E) or PSGR-1 (FIG. 18C) as described. LNCaP/CRL1740 (LNCaP high in HLA-A2.1 expression), LNCaP/CRL10995 (LNCaP low in HLA-A2.1 expression) and PC3 (negative for HLA-A2.1) served as targets in CTL assays.
(§1) When human PBMC are stimulated in vitro by PAP-3 and STEAP-3 peptides, the resulting CTL can lyse target cells (T2, EL4/HHD) pulsed with PAP-3, STEAP-3 or PSGR-1 and PSGR-6 peptides. (FIGS. 15 and 16). Here, these findings were expanded and peripheral blood of three healthy and two CaP individuals was tested for the existence of CTL precursors against PAP-3, STEAP-3 and PSGR-1 peptides. Leukopheresis products of the donors were obtained from Barzilai Medical Center (Ashkelon, Israel) according to Declaration of Helsinki Principles. PBMC were isolated by centrifugation on Ficoll-Plaque Plus gradients (Amersham, Sweden). In vitro priming of CTL was done over autologous DC that were prepared from monocytes by IL-4 and GM-CSF treatment and matured with a IL-1β, IL-6, TNF-α and PGE2 cocktail. DC were pulsed with synthetic peptides and PBMC were supplemented with IL-7. Two days later, IL-2 was added and renewed every three days. Two additional re-stimulations were done every 7 days over peptide pulsed monocytes. Seven days after the third stimulation, lymphocytes were harvested and a cytolytic assay was performed using relevant/non-relevant peptide pulsed or non-pulsed T2 cells (FIGS. 17A-17C) and LNCaP (high and low HLA expressors) cells as targets (FIGS. 18A-18E). […] Monitoring of HLA-A2-peptide specific CD8+ cells for PAP-3 and STEAP-3 was also performed by MHC-peptide tetramers (tetramers of recombinant HLA-A2.1-beta2 microglobulin single chain with peptides were prepared in collaboration with Dr Yoram Reiter, Technion, Haifa). […]

The next assay has as its system T2 cells. The assay is described as follows: In vitro priming of human CTL with prostate peptides, cytolytic assay on peptide pulsed T2 cells. The format is cell-based. As to conditions: three healthy and two CaP individuals. On the procedure: FIGS. 16A-16D are graphs showing in vitro priming of human CTLs. PBMC of leukopheresis samples were isolated and in vitro CTL primed with peptide pulsed autologous DC. PBMC were supplemented with IL-7 and two days later IL-2 was added and renewed every three days. Additional two cycles of re-stimulation were done every 7 days over peptide pulsed monocytes. Seven days after the last stimulation cytolytic assay was performed using peptide pulsed or non-pulsed T2 cells as target. In FIG. 16A, PBMC derived from CaP individual (donor A) were primed and re-stimulated with STEAP-3 pulsed DC/monocytes. Target cells: relevant (STEAP-3) and non-relevant peptide (HIV-derived, PAP-3) pulsed T2 cells. In FIG. 16B, PBMC derived from healthy individual (donor B) were primed and restimulated with PAP-3 pulsed DC/monocytes. Target cells: relevant (PAP-3) and non-relevant peptide (HIV-derived, STEAP-3) pulsed T2 cells. PBMC derived from healthy individual (donor C) were primed and restimulated with either PAP-3 (C-1; FIG. 16C) or STEAP-3 (C-2; FIG. 16D) pulsed DC/monocytes. Relevant (PAP-3 or STEAP-3) peptide pulsed and non-pulsed T2 cells were used as targets.
FIGS. 17A-17C are graphs showing peptide specific CTL induced in human PBMC by PAP-3 (FIG. 17A), STEAP-3 (FIG. 17B), and PSGR-1 (FIG. 17C). PBMC from a healthy donor were stimulated by peptide pulsed DC as described and CTL activity was tested on homologous peptide pulsed T2 target cells (HLA-A2 lymphoma, TAP deficient).
Finally, peripheral blood of two healthy (donors B, C) and one CaP (donor A) individuals were tested for the existence of CTL precursors (FIGS. 16A-16D). Leukopheresis products of the donors were obtained from Barzilai Medical Center (Ashkelon, Israel) according to Declaration of Helsinki Principles. PBMC were isolated by centrifugation on Ficoll-Plaque Plus gradients (Amersham, Sweden). In vitro priming of CTL was done over autologous DC that were prepared from monocytes by IL-4 and GM-CSF treatment and maturated with a IL-1β, IL-6, TNF-α and PGE2 cocktail. DC were pulsed with synthetic peptides and PBMC were supplemented with IL-7. Two days later, IL-2 was added and renewed every three days. Two additional re-stimulations were done every 7 days over peptide pulsed monocytes. Seven days after the third stimulation, lymphocytes were harvested and a cytolytic assay was performed using relevant/non-relevant peptide pulsed or non-pulsed at all T2 cells.
as §1

For “ILLVMGVDV (listed as Homo sapiens) [PSGR-1, PSGR start position 202]”, the “lysis of tumor cells expressing endogenously processed proteins” value in the assay on LNCaP is “lyse tumor cells”. Besides, the “activation of CTL precursors in PBMC derived from CaP patients and healthy donors” value with T2 cells was “activated CTL precursors”.
